ChEMBL document CHEMBL1909046, “DrugMatrix in vitro pharmacology data”
pIC50: −log10 of the molar value.

Legend:
[1] = molecular target: Aldo-keto reductase family 1 member B1 (Rattus norvegicus, UniProt P07943); assay: biochemical; type: tissue-based, Lens of camera-type eye;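 note: inhibition of aldose reductase enzyme activity, measured with DL-glyceraldehyde as the substrate; in other assays of this panel Not Active means under 50% inhibition at 10 µM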
[2] = DRUGMATRIX: Imidazoline I2, Central radioligand binding (ligand: [3H] Idazoxan); type: cell membranes, Rattus norvegicus, Wistar, Cerebral cortex, Membrane; conditions: Not Active = under 50% inhibition at 10 µM
[3] = molecular target: cGMP-specific 3',5'-cyclic phosphodiesterase (Homo sapiens, UniProt O76074); assay: DRUGMATRIX: Phosphodiesterase PDE5 enzyme inhibition (substrate: [3H]cGMP + cGMP); type: tissue-based, Platelet; conditions: platelet; Not Active = under 50% inhibition at 10 µM
[4] = DRUGMATRIX: Purinergic P2X radioligand binding (ligand: [3H] alpha, beta-Methylene-ATP); type: cell membranes, Oryctolagus cuniculus, New Zealand albino, Urinary bladder, Membrane; conditions: Not Active = under 50% inhibition at 10 µM
[5] = DRUGMATRIX: Nicotinic Acetylcholine radioligand binding (ligand: [125I] Epibatidine); type: cell membranes, Membrane; conditions: imr-32; Not Active = under 50% inhibition at 10 µM
[6] = molecular target: T1, Nitric oxide synthase, inducible (Mus musculus, UniProt P29477); design: species or system Escherichia coli;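 note: inhibition of iNOS enzyme activity measured with L-arginine as substrate; in other assays of this panel Not Active means under 50% inhibition at 10 µM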
T1 sequence (P29477 whole entry): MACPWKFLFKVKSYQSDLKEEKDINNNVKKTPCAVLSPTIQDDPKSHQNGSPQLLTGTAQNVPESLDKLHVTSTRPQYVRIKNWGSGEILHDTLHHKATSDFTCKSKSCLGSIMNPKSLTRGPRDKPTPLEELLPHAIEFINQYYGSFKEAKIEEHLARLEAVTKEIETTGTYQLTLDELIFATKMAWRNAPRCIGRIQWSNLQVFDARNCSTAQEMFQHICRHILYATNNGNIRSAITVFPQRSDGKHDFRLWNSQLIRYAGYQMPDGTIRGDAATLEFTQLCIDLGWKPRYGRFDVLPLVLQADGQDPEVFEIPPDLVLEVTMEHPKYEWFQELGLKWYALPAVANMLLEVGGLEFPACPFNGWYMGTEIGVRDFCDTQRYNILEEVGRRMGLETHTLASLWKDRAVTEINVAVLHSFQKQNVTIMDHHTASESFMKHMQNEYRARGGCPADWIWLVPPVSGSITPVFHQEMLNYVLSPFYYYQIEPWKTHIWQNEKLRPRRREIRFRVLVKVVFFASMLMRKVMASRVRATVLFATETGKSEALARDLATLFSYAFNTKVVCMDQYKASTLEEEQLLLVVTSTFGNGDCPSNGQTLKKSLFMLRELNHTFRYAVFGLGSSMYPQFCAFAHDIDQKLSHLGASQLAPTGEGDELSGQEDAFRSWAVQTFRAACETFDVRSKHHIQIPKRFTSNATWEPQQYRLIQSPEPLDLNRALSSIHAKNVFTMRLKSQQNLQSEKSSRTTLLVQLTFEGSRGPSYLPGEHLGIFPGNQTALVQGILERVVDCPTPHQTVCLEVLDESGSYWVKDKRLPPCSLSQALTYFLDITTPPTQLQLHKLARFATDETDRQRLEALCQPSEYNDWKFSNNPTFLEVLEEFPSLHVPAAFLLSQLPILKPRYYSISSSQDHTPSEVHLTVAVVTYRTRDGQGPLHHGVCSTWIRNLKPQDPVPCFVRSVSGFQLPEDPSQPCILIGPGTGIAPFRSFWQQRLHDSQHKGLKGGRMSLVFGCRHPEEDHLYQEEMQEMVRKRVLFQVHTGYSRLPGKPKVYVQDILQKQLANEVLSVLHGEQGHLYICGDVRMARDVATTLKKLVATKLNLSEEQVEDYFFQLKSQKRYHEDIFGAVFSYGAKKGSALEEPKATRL

[7] = molecular target: Nitric oxide synthase 1 (Rattus norvegicus, UniProt P29476); type: tissue-based, Cerebellum; note: in other assays of this panel Not Active means under 50% inhibition at 10 µM
Nitric oxide synthase 1, sequence (P29476 whole entry): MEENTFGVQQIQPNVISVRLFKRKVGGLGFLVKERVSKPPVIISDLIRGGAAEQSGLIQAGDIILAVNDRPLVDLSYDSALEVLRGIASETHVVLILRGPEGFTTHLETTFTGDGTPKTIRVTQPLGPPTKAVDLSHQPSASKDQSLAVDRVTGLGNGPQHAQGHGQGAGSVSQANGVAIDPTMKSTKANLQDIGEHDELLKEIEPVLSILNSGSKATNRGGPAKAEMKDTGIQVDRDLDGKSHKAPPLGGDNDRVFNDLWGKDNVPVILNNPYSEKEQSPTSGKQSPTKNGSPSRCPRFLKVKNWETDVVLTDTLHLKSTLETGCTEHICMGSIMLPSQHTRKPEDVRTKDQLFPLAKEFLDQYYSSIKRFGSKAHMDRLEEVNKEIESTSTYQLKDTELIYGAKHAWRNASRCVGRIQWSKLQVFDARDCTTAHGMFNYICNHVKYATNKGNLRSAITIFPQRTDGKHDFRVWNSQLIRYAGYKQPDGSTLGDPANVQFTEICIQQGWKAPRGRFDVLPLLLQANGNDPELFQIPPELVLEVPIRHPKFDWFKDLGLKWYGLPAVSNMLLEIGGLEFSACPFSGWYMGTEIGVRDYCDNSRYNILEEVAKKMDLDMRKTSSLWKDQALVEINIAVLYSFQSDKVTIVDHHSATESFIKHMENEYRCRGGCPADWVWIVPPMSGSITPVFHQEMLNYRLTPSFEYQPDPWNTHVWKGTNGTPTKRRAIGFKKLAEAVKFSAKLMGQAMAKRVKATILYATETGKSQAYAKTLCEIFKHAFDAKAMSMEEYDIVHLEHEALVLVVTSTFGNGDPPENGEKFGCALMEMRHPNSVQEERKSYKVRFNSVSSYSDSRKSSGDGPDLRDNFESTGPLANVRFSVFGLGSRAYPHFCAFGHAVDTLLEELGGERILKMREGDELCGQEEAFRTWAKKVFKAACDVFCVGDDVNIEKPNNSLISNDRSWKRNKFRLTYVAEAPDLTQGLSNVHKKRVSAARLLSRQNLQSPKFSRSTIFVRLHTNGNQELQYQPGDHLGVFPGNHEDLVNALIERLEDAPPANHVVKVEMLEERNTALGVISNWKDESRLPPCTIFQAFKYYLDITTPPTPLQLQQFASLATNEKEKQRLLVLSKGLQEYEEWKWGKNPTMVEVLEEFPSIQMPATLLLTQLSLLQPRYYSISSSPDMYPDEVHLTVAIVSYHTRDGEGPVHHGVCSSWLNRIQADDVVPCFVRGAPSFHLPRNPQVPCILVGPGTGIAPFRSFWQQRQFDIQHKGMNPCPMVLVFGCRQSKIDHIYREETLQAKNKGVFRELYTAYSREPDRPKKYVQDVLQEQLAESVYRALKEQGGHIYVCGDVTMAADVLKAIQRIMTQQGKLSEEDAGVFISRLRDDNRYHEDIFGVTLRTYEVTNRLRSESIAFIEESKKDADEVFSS

CC(Cl)(Cl)Cl [TRICHLOROETHANE]
Not Active: IC50 [1] | IC50 [2] | Ki [2] | IC50 [3] | IC50 [4] | Ki [4] | IC50 [5] | Ki [5] | IC50 [6] | IC50 [7]

LEAD(IV) ACETATE
Not Active: IC50 [1] | Ki [1] | IC50 [2] | Ki [2] | IC50 [3] | Ki [3] | IC50 [4] | Ki [4] | IC50 [5] | Ki [5] | IC50 [6] | Ki [6] | IC50 [7] | Ki [7]

O=C(c1ccccc1)c1ccc2n1CCC2C(=O)O (centres undefined) [KETOROLAC]
5.21: pIC50 ([1]; read-out: IC50)
Not Active: IC50 [2] | Ki [2] | IC50 [3] | IC50 [4] | Ki [4] | IC50 [5] | Ki [5] | IC50 [6] | IC50 [7]
